Measured values: the supplement of paper PMC10307832

How the values were obtained:
Experiment in all cases: relative viability (nuclei count vs DMSO), 5 days (fraction); higher = more cells survive
[1] = compound: Cc1ccc2nc(NCCN)c3ncc(C)n3c2c1 + CC(=O)c1c(C)c2cnc(Nc3ccc(N4CCNCC4)cn3)nc2n(C2CCCC2)c1=O [Palbociclib] (partner 0.5 µM)
Outline: (§1)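 One day after seeding in 1536-well plates, lung cancer cell lines were dosed by pin tool. Dosing was either single-drug or a fixed anchor-drug dose plus five library-drug doses (not always all listed) in √10 steps. After 5 days, nuclei were stained in one fix-and-stain step and counted on 4× images, and relative viability is the nuclei count of treated wells over that of vehicle wells, given as the median of duplicate plates.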

Salubrinal + Decitabine = compound: O=C(/C=C/c1ccccc1)NC(NC(=S)Nc1cccc2cccnc12)C(Cl)(Cl)Cl [Salubrinal] + Nc1ncn([C@H]2C[C@H](O)[C@@H](CO)O2)c(=O)n1 [Decitabine] (partner 2 µM)
Outline: as §1

[2] = compound: Cc1ccc2nc(NCCN)c3ncc(C)n3c2c1 + Nc1nc2[nH]cc(CCc3ccc(C(=O)N[C@@H](CCC(=O)O)C(=O)O)cc3)c2c(=O)[nH]1 [Pemetrexed] (partner 0.2 µM)
Outline: as §1

Salubrinal + Alpelisib = compound: O=C(/C=C/c1ccccc1)NC(NC(=S)Nc1cccc2cccnc12)C(Cl)(Cl)Cl [Salubrinal] + Cc1nc(NC(=O)N2CCC[C@H]2C(N)=O)sc1-c1ccnc(C(C)(C)C(F)(F)F)c1 [Alpelisib] (partner 2 µM)
Outline: as §1

Cell Line | relative viability ([1]; first compound 0.04 µM) | relative viability ([1]; first compound 0.1265 µM) | relative viability ([1]; first compound 0.4 µM) | relative viability ([1]; first compound 1.265 µM) | relative viability ([1]; first compound 4 µM) | relative viability (Salubrinal + Decitabine; first compound 0.08 µM) | relative viability (Salubrinal + Decitabine; first compound 0.253 µM) | relative viability (Salubrinal + Decitabine; first compound 0.8 µM) | relative viability (Salubrinal + Decitabine; first compound 2.53 µM) | relative viability (Salubrinal + Decitabine; first compound 8 µM) | relative viability ([2]; first compound 0.04 µM) | relative viability ([2]; first compound 0.1265 µM) | relative viability ([2]; first compound 0.4 µM) | relative viability ([2]; first compound 1.265 µM) | relative viability ([2]; first compound 4 µM) | relative viability (Salubrinal + Alpelisib; first compound 0.08 µM) | relative viability (Salubrinal + Alpelisib; first compound 0.253 µM) | relative viability (Salubrinal + Alpelisib; first compound 0.8 µM) | relative viability (Salubrinal + Alpelisib; first compound 2.53 µM) | relative viability (Salubrinal + Alpelisib; first compound 8 µM)
NCI-H1975 | 0.626 | 0.583 | 0.647 | 0.611 | 0.517 | 0.315 | 0.357 | 0.351 | 0.389 | 0.366 | 0.309 | 0.29 | 0.3 | 0.313 | 0.324 | 0.713 | 0.467 | 0.766 | 0.674 | 0.579
CAL-12T | 0.499 | 0.47 | 0.39 | 0.376 | 0.48 | – | – | – | – | – | 1.42 | 1.13 | 1.15 | 1.04 | 1.03 | 1.6 | 0.712 | 1.31 | 1.17 | 1.02
NCI-H2342 | 0.626 | 0.552 | 0.479 | 0.532 | 0.531 | 0.797 | 0.82 | 0.657 | 0.769 | 0.595 | 0.871 | 0.817 | 0.751 | 0.827 | 0.713 | – | – | – | – | –
HCC-44 | 0.934 | 0.94 | 0.914 | 0.894 | 0.99 | 0.955 | 0.969 | 0.935 | 0.934 | 0.919 | 0.679 | 0.704 | 0.643 | 0.594 | 0.709 | 0.904 | 0.758 | 0.806 | 0.84 | 0.671
EKVX | 0.441 | 0.358 | 0.36 | 0.351 | 0.295 | 0.367 | 0.366 | 0.482 | 0.286 | 0.331 | 0.394 | 0.404 | 0.387 | 0.36 | 0.313 | 1.14 | 0.729 | 1.01 | 0.887 | 0.88
NCI-H1651 | 0.545 | 0.515 | 0.518 | 0.512 | 0.512 | 0.654 | 0.542 | 0.681 | 0.634 | 0.661 | 0.578 | 0.639 | 0.647 | 0.591 | 0.502 | 1.02 | 0.565 | 1.07 | – | 1.02
NCI-H1648 | 0.272 | 0.27 | 0.237 | 0.25 | 0.282 | 0.615 | 0.483 | 0.632 | 0.493 | 0.366 | 0.696 | 0.85 | 0.723 | 0.627 | 0.7 | – | – | – | – | –
NCI-H1703 | – | – | – | – | – | – | – | – | – | – | – | – | – | – | – | 0.394 | 0.359 | 0.324 | 0.365 | 0.374
Calu-6 | – | – | – | – | – | – | – | – | – | – | – | – | – | – | – | 0.94 | 0.936 | 1.07 | 1.04 | 0.942
EBC-1 | – | – | – | – | – | – | – | – | – | – | – | – | – | – | – | 0.869 | 0.952 | 0.976 | 0.811 | 0.736
SW 1573 | 0.396 | 0.461 | 0.399 | 0.428 | 0.134 | 0.697 | 0.372 | 0.609 | 0.488 | 0.555 | 1.01 | 0.828 | 0.912 | 0.992 | 0.611 | 0.802 | 0.909 | 0.827 | 1.04 | 0.604
A-427 | 0.531 | 0.485 | 0.496 | 0.506 | 0.555 | 0.575 | 0.564 | 0.57 | 0.539 | 0.597 | 0.979 | 0.939 | 1.02 | 0.95 | 0.948 | 1.06 | 1.16 | 1.17 | 1.16 | 1.15
NCI-H2347 | 0.431 | 0.451 | 0.417 | 0.433 | 0.455 | 0.598 | 0.571 | 0.663 | 0.649 | 0.661 | 0.447 | 0.479 | 0.454 | 0.412 | 0.424 | 1.11 | 0.928 | 1.25 | 1.06 | 1.08
NCI-H1355 | 0.46 | 0.4 | 0.406 | 0.409 | 0.376 | 0.352 | 0.394 | 0.359 | 0.36 | 0.35 | 1.05 | 1.16 | 0.987 | 1.03 | 0.971 | 0.955 | 0.942 | 0.884 | 0.852 | 0.779
NCI-H1944 | 0.333 | 0.322 | 0.349 | 0.31 | 0.297 | 0.445 | 0.452 | 0.43 | 0.476 | 0.428 | 0.687 | 0.586 | 0.582 | 0.555 | 0.587 | 0.912 | 0.912 | 0.871 | 0.871 | 0.795
PC-3 [JPC-3] | 0.56 | 0.56 | 0.552 | 0.513 | 0.512 | 0.848 | 0.836 | 0.891 | 0.848 | 0.81 | 1.21 | 1.03 | 1.1 | 0.987 | 1.09 | 1.08 | 0.98 | 1.13 | 1.07 | 1.03
NCI-H2228 | 0.649 | 0.763 | 0.908 | 0.782 | 0.648 | – | – | – | – | – | 0.316 | 0.292 | 0.357 | 0.361 | 0.419 | 0.87 | 0.582 | 0.792 | 0.861 | 0.725
HOP-62 | 0.424 | 0.436 | 0.475 | 0.469 | 0.464 | 0.192 | 0.206 | 0.196 | 0.187 | 0.224 | 0.298 | 0.303 | 0.348 | 0.352 | 0.339 | 0.861 | 1.26 | 0.95 | 1.03 | 1.21
HARA | 0.2 | 0.236 | 0.237 | 0.222 | 0.268 | 0.402 | 0.498 | 0.601 | 0.517 | 0.605 | 0.217 | 0.237 | 0.226 | 0.236 | 0.234 | 0.948 | 0.931 | 0.848 | 0.937 | 0.78
